Data: patent US9458172B2, “Pyridinyl and pyrimidinyl sulfoxide and sulfone derivatives” (priority 2012, dated 2016)
Like-named read-outs stand apart in the source and are kept apart here.

Columns and labels:
[1] = biological target: NAMPT (Homo sapiens (Human), UniProt P43490); experiment: Biochemical Inhibition Assay (NAMPT enzymatic reaction, NMN quantified by mass spectrometry); conditions: 33 nM recombinant His-tagged NAMPT, 1 μM NAM, 30 min at rt
Procedure: Assay 1: Biochemical Inhibition Assay
NAMPT protein purification. Recombinant His-tagged NAMPT was produced in E. coli cells, purified over a Ni column, and further purified over a size-exclusion column by XTAL Biostructures.
The NAMPT Enzymatic Reaction. The NAMPT enzymatic reactions were carried out in Buffer A (50 mM Hepes pH 7.5, 50 mM NaCl, 5 mM MgCl2, and 1 mM THP) in 96-well V-bottom plates. The compound titrations were performed in a separate dilution plate by serially diluting the compounds in DMSO to make a 100× stock. […] The compound and enzyme mixture was incubated for 15 min at rt, then 10 μL of 10× substrate and co-factors in Buffer A were added to the test well to make a final concentration of 1 μM NAM, […] 5-Phospho-D-ribose 1-diphosphate (PRPP), and 2.5 mM Adenosine 5′-triphosphate (ATP). The reaction was allowed to proceed for 30 min at rt, then was quenched with the addition of 11 μL of a solution of formic acid and L-Cystathionine to make a final concentration of 1% formic acid and 10 μM L-Cystathionine. Background and signal strength was determined by addition (or non-addition) of a serial dilution of NMN to a pre-quenched enzyme and cofactor mix.
Quantification of NMN. A mass spectrometry-based assay was used to measure the NAMPT reaction product, β-nicotinamide mononucleotide (NMN), and the internal control (L-Cystathionine). NMN and L-Cystathionine were detected using the services of Biocius Lifesciences with the RapidFire system. In short, the NMN and L-Cystathionine were bound to a graphitic carbon cartridge in 0.1% formic acid, eluted in 30% acetonitrile buffer, and injected into a Sciex 4000 mass spectrometer. The components of the sample were ionized with electrospray ionization and the positive ions were detected. […] The fragments are quantified and the analyzed by the following method.
Determination of IC50 Values. First, the NMN signal was normalized to the L-Cystathionine signal by dividing the NMN signal by the L-Cystathionine signal for each well. The signal from the background wells were averaged and subtracted from the test plates.

[2] = test system: A2780 cells; experiment: In-Vitro Cell Proliferation Assay (SRB)
[3] = Homo sapiens, A2780, 72 h, read-out: Cell Proliferation (IC50)
[4] = Homo sapiens, A2780, 72 h, read-out: Cell Proliferation (IC50), A2780 cells, 72 h, sulforhodamine B

Sequence of NAMPT (P43490 whole entry): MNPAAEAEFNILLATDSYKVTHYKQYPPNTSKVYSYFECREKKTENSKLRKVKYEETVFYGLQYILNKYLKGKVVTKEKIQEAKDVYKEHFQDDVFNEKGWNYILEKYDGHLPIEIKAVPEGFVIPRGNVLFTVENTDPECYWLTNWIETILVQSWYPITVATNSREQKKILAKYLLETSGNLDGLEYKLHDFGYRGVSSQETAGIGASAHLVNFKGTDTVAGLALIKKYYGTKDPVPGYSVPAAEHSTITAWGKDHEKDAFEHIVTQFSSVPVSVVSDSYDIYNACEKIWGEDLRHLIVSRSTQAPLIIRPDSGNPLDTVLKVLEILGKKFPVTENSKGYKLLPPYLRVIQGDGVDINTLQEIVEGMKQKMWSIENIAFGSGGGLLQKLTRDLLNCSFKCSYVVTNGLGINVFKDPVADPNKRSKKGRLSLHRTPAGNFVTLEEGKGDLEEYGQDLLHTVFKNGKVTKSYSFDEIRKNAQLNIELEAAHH

Row | Structure (SMILES) | IC50 [1] [nM] | IC50 [2, 3] [nM] | IC50 [2, 4] [nM] | also measured
1 | O=C(NCc1ccc(S(=O)(=O)N2CCC(N3CCCC3)CC2)cn1)c1cc2ccncc2o1 [Example 91, Furo[2,3-c]pyridine-2-carboxylic acid [5-(4-pyrrolidin-1-yl-piperidine-1-sulfonyl)-pyridin-2-ylmethyl]-amide] | 47.4 | 45.7 |  | 
2 | O=C(NCc1ccc(S(=O)(=O)C2CCN(CC(F)(F)F)CC2)cn1)c1cc2ccncc2o1 [Example 131, N-[[5-[[1-(2,2,2-trifluoroethyl)-4-piperidyl]sulfonyl]-2-pyridyl]methyl]furo[2,3-c]pyridine-2-carboxamide] | 5.24 |  | 24.4 | 
3 | O=C(NCc1ccc(S(=O)(=O)c2cccc(OC(F)(F)F)c2)cn1)c1cnc2nccn2c1 [Example 20, Imidazo[1,2-a]pyrimidine-6-carboxylic acid [5-(3-trifluoromethoxy-benzenesulfonyl)-pyridin-2-ylmethyl]-amide] | 3.4 | 11.4 |  | 
4 | O=C(NCc1ccc(S(=O)(=O)C2CCCCC2)cn1)N1Cc2ccncc2C1 [Example 59, 1,3-Dihydro-pyrrolo[3,4-c]pyridine-2-carboxylic acid (5-cyclohexanesulfonyl-pyridin-2-ylmethyl)-amide] | 27.5 |  | 237 | 
5 | O=C(NCc1ccc(S(=O)(=O)C2CCN(C3CCOCC3)CC2)cn1)c1cnc2[nH]ncc2c1 [Example 162, N-[[5-[(1-tetrahydropyran-4-yl-4-piperidyl)sulfonyl]-2-pyridyl]methyl]-1H-pyrazolo[3,4-b]pyridine-5-carboxamide] | 1830 | 295 |  | 
6 | O=C(NCc1ccc(S(=O)(=O)c2cc(F)cc(F)c2)cn1)c1cc2ccncc2o1 [Example 5, Furo[2,3-c]pyridine-2-carboxylic acid [5-(3,5-difluoro-benzenesulfonyl)-pyridin-2-ylmethyl]-amide] |  |  | 5.2 | 
7 | CCCn1cc(S(=O)(=O)c2ccc(CNC(=O)N3Cc4ccncc4C3)nc2)cn1 [Example 140, N-[[5-(1-propylpyrazol-4-yl)sulfonyl-2-pyridyl]methyl]-1,3-dihydropyrrolo[3,4-c]pyridine-2-carboxamide] |  |  | 37.2 | 
8 | O=C(NCc1ccc(S(=O)(=O)c2cc(F)cc(N3CCOCC3)c2)cn1)c1cc2ccncc2o1 [Example 88, Furo[2,3-c]pyridine-2-carboxylic acid [5-(3-fluoro-5-morpholin-4-yl-benzenesulfonyl)-pyridin-2-ylmethyl]-amide] |  |  | 2 | 
9 | CN1CCN(c2ccc(S(=O)(=O)c3ccc(CNC(=O)c4cc5ccncc5o4)nc3)cn2)CC1 [Example 113, N-[[5-[[6-(4-methylpiperazin-1-yl)-1-pyridyl]sulfonyl]-2-pyridyl]methyl]furo[2,3-c]pyridine-2-carboxamide] |  |  |  | IC50 ([2]; read-out: Cell Proliferation (IC50), A2780 cells, 72 h, sulforhodamine B): 0.488 nM
10 | O=C(NCc1ccc(S(=O)(=O)c2ccc(N3CCOCC3)cc2)cn1)N1Cc2ccncc2C1 [Example 97, 1,3-Dihydro-pyrrolo[3,4-c]pyridine-2-carboxylic acid [5-(4-morpholin-4-yl-benzenesulfonyl)-pyridin-2-ylmethyl]-amide] |  |  | 4.23 | 
11 | CCN(C)c1ncc(S(=O)(=O)c2ccc(CNC(=O)c3cc4ccncc4o3)nc2)s1 [Example 146, N-[[5-[2-[ethyl(methyl)amino]thiazol-5-yl]sulfonyl-2-pyridyl]methyl]furo[2,3-c]pyridine-2-carboxamide] |  |  | 3.03 | 
12 | O=C(NCc1ccc(S(=O)(=O)c2cccc(OC(F)(F)F)c2)cn1)c1cc2cnccc2[nH]1 [Example 21, 1H-Pyrrolo[3,2-c]pyridine-2-carboxylic acid [5-(3-trifluoromethoxy-benzenesulfonyl)-pyridin-2-ylmethyl]-amide] |  |  | 10.2 | 
13 | O=C(NCc1ccc(S(=O)(=O)C2CCN(C3CCOCC3)CC2)cn1)c1cc2ccncc2o1 [Example 105, Furo[2,3-c]pyridine-2-carboxylic acid {5-[1-(tetrahydro-pyran-4-yl)-piperidine-4-sulfonyl]-pyridin-2-ylmethyl)-amide] |  |  | 28.6 | 

More lines, main results first:

Row | IC50 [1] [nM] | IC50 [2, 3] [nM] | IC50 [2, 4] [nM] | Structure (SMILES) | also measured
14 | 693 | 1300 |  | O=C(NCc1ccc(S(=O)(=O)C2CCOCC2)cn1)c1ccc2nccn2c1 [Example 60, Imidazo[1,2-a]pyridine-6-carboxylic acid [5-(tetrahydro-pyran-4-sulfonyl)-pyridin-2-ylmethyl]-amide] | 
15 | 20.2 | 495 |  | O=C(NCc1ccc(S(=O)(=O)c2ccccc2)cn1)c1cnc2nccn2c1 [Example 185, N-[[5-(benzenesulfonyl)-2-pyridyl]methyl]imidazo[1,2-a]pyrimidine-6-carboxamide] | 
16 | 75.7 | 85.2 |  | O=C(NCc1ccc(S(=O)(=O)N2CCC(N3CCCC3)CC2)cn1)N1Cc2ccncc2C1 [Example 148, N-[[5-[(4-pyrrolidin-1-yl-1-piperidyl)sulfonyl]-2-pyridyl]methyl]-1,3-dihydropyrrolo[3,4-c]pyridine-2-carboxamide] | 
17 | 72.3 | 330 |  | O=C(NCc1ccc(S(=O)(=O)c2ccc(C(F)(F)F)nc2)cn1)c1ccc2nccn2c1 [Example 82, Imidazo[1,2-a]pyridine-6-carboxylic acid [5-(6-trifluoromethyl-pyridine-3-sulfonyl)-pyridin-2-ylmethyl]-amide] | 
18 |  | 314 |  | O=C(NCc1ncc(S(=O)(=O)c2ccccc2)cn1)c1cc2ccncc2o1 [Example 11, Furo[2,3-c]pyridine-2-carboxylic acid (5-benzenesulfonyl-pyrimidin-2-ylmethyl)-amide] | 
19 |  |  | 11.6 | CC(C)n1cc(S(=O)(=O)c2ccc(CNC(=O)c3cc4ccncc4o3)nc2)cn1 [Example 62, Furo[2,3-c]pyridine-2-carboxylic acid [5-(1-isopropyl-1H-pyrazole-4-sulfonyl)-pyridin-2-ylmethyl]-amide] | 
20 |  | 5.3 |  | CCCn1cc(S(=O)(=O)c2ccc(CNC(=O)c3cc4ccncc4o3)nc2)cn1 [Example 61, Furo[2,3-c]pyridine-2-carboxylic acid [5-(1-propyl-1H-pyrazole-4-sulfonyl)-pyridin-2-ylmethyl]-amide] | 
21 |  |  | 5.4 | O=C(NCc1ccc(S(=O)(=O)c2cccc(C(F)(F)F)c2)cn1)c1cc2ccncc2o1 [Example 22, Furo[2,3-c]pyridine-2-carboxylic acid [5-(3-trifluoromethyl-benzenesulfonyl)-pyridin-2-ylmethyl]-amide] | 
22 |  |  | 28.3 | O=C(NCc1ccc(S(=O)(=O)c2cccc(OC(F)(F)F)c2)cn1)c1cnc2[nH]ncc2c1 [Example 19, 1H-Pyrazolo[3,4-b]pyridine-5-carboxylic acid [5-(3-trifluoromethoxy-benzenesulfonyl)-pyridin-2-ylmethyl]-amide] | 
23 |  |  | 41.5 | COc1cc(F)cc(S(=O)(=O)c2ccc(CNC(=O)c3cnc4[nH]ncc4c3)nc2)c1 [Example 144, N-[[5-(3-fluoro-5-methoxy-phenyl)sulfonyl-2-pyridyl]methyl]-1H-pyrazolo[3,4-b]pyridine-5-carboxamide] | 
24 |  |  | 38.9 | O=C(NCc1ccc(S(=O)(=O)C2CCN(C3COC3)CC2)cn1)c1cc2ccncc2o1 [Example 103, Furo[2,3-c]pyridine-2-carboxylic acid [5-(1-oxetan-3-yl-piperidine-4-sulfonyl)-pyridin-2-ylmethyl]-amide] | 
25 |  |  | 58.8 | CCn1cc(S(=O)(=O)c2ccc(CNC(=O)c3cc4ccncc4o3)nc2)cn1 [Example 176, N-[[5-(l-ethylpyrazol-4-yl)sulfonyl-2-pyridyl]methyl]furo[2,3-c]pyridine-2-carboxamide] | 
